In patent US20250376483A1, “PRODRUGS OF PAN-KRAS INHIBITORS” (Mirati Therapeutics, Inc., priority 2022, published 2025):

How the values were obtained:
[1] = Whole Blood Stability Assay (mouse whole blood); assay type: in vitro ADME; conditions: male, fresh whole blood; CD-1 mouse blood, EDTA-K2, final conc. 2 μM, 37° C., 0-120 min; read-out: Mouse Whole Blood Stability t1/2
Description: Whole Blood Stability Assay
This Example illustrates that exemplary compounds of the present invention is cleavage in mouse whole blood.
(§1) Test Compounds and Stock Solutions: Stock Conc. 10 mM; Final Conc. 2 μM
(§2) Test Compound and Control Working Solution Preparation:
• Intermediate solution: 5 μL of compound stock solution (10 mM in dimethyl sulfoxide (DMSO)) were diluted with […] of DMSO (intermediate solution concentration: 1 mM, 100% DMSO) • Propantheline bromide (control) intermediate solution: 5 μL of propantheline stock solution (10 mM in ultra-pure water) were diluted with 45 μL of ultra-pure water (intermediate solution concentration: 1 mM) • Working solution 1: 20 μL of test compound intermediate solution (1 mM) were diluted with 180 μL of 45% ACN/H2O (working solution concentration: […], 40.5% ACN, 10% DMSO) • Working solution 2: 20 μL of control intermediate solution (1 mM) were diluted with 180 μL of 45% ACN/H2O (working solution concentration: 100 μM, 40.5% ACN, 10% DMSO) • Species/Matrix: CD-1 Mouse Blood • No. of Individuals: n>3 Male • Anticoagulant Used: EDTA-K2
• The fresh blood was collected on the day of experiment and pre-warmed in a water bath at 37° C. • Using an Apricot automation workstation, 98 μL/well of blank blood were added to all 96-well reaction plates (Blank, T0, T10, T30, T60 and T120). • An Apricot automation workstation was used to add 2 μL/well of working solution (100 μM) to all reaction plates except Blank (T0, T10, T30, T60 and T120). • All reaction plates containing mixtures of compound and blood were incubated at 37° C. in water bath. • The reaction plates were incubated at 37° C., and timer was started. • At the end of incubation, mixed 100 μL water with 100 μL spiked blood samples, then added 800 μL of stop solution (200 ng/mL tolbutamide and 200 ng/mL labetalol in ACN) to precipitate protein. Mixed thoroughly. • Each plate was sealed and shaken for 20 minutes. • After shaking, each plate was centrifuged at 4000 rpm and 4° C. for 20 minutes. • After centrifugation, an Apricot automation workstation was used to transfer 150 μL of supernatant from each reaction plate to its corresponding bioanalysis plate. • Each bioanalysis plate was submitted to LC-MS/MS analysis.
• The % remaining of test compound after incubation in blood was calculated using following equation:
(§3) [formula] • where PAR is the peak area ratio of analyte versus internal standard (IS) • The appointed incubation time points are TO (0 min), Tn (n=0, 10, 30, 60 and 120 min)

[2] = Plasma Stability Assay (human plasma); assay type: in vitro ADME; conditions: both sexes; pooled human plasma, heparin, final conc. 2 μM, 37° C., 0-120 min; read-out: Human Plasma Stability t1/2
Description: This Example illustrates that exemplary compounds of the present invention is cleavage in human plasma.
as §1, §2
• Test compound intermediate solution: 10 μL of compound stock solution (10 mM in dimethyl sulfoxide (DMSO)) were diluted with 90 μL of DMSO (intermediate solution concentration: 1 mM, 100% DMSO) • Control intermediate solution: 10 μL of control stock solution (10 mM in dimethyl sulfoxide (DMSO)) were diluted with 90 μL of DMSO (intermediate solution concentration: 1 mM, 100% DMSO) • Species/Matrix: Human Plasma • No. of Individuals: 3 Male & 3 Female • Anticoagulant Used: Heparin
• The pooled frozen plasma was thawed in a water bath at 37° C. prior to experiment. Plasma was centrifuged at 4000 rpm for 5 min and the clots were removed if any. • Using an Apricot automation workstation, 98 μL/well of blank plasma were added to all 96-well reaction plates. (Blank, T0, T10, T30, T60 and T120) • An Apricot automation workstation was used to add 2 μL/well of working solution (100 μM) to all reaction plates except Blank. (T0, T10, T30, T60 and T120) • All reaction plates containing mixtures of compound and plasma were incubated at 37° C. in water bath. • The reaction plates were incubated at 37° C., and timer was started. • At the end of incubation, added 500 μL of stop solution (200 ng/mL tolbutamide and 200 ng/mL labetalol in ACN) to precipitate protein. Mixed thoroughly. • Each plate was sealed and shaken for 20 minutes. • After shaking, each plate was centrifuged at 4000 rpm and 4° C. for 20 minutes • After centrifugation, an Apricot automation workstation was used to transfer 50 μL supernatant into 100 μL HPLC water. • Each bioanalysis plate was sealed and shaken for 10 minutes prior to LC-MS/MS analysis Data Analysis • The % remaining of test compound after incubation in blood was calculated using following equation:
as §3

CCCCCC(=O)Oc1cc(-c2ncc3c(N4C[C@@H]5C[C@H](C4)[C@H](O)C5)nc(OC[C@@]45CCCN4C[C@H](F)C5)nc3c2F)c2c(CC)c(F)ccc2c1 [Example 18, 5-ethyl-6-fluoro-4-(8-fluoro-2-(((2R,7aS)-2-fluorotetrahydro-1H-pyrrolizin-7a(5H)-yl)methoxy)-4-((1R,5R,6R)-6-hydroxy-3-azabicyclo[3.2.1]octan-3-yl)pyrido[4,3-d]pyrimidin-7-yl)naphthalen-2-yl hexanoate]
half-life at 2 μM [1]: < 5 min | half-life at 2 μM [2]: 44 min

CCc1c(F)ccc2cc(OC(=O)C3CCC3)cc(-c3ncc4c(N5C[C@@H]6C[C@H](C5)[C@H](O)C6)nc(OC[C@@]56CCCN5C[C@H](F)C6)nc4c3F)c12 [Example 13, 5-ethyl-6-fluoro-4-(8-fluoro-2-(((2R,7aS)-2-fluorotetrahydro-1H-pyrrolizin-7a(5H)-yl)methoxy)-4-((1R,5R,6R)-6-hydroxy-3-azabicyclo[3.2.1]octan-3-yl)pyrido[4,3-d]pyrimidin-7-yl)naphthalen-2-yl cyclobutanecarboxylate]
half-life at 2 μM [1]: 6 min | half-life at 2 μM [2]: 16 min

CCc1c(F)ccc2cc(OCOC(=O)N(C)C)cc(-c3ncc4c(N5C[C@@H]6C[C@H](C5)[C@H](O)C6)nc(OC[C@@]56CCCN5C[C@H](F)C6)nc4c3F)c12 [Example 20, ((5-ethyl-6-fluoro-4-(8-fluoro-2-(((2R,7aS)-2-fluorotetrahydro-1H-pyrrolizin-7a(5H)-yl)methoxy)-4-((1R,5R,6R)-6-hydroxy-3-azabicyclo[3.2.1]octan-3-yl)pyrido[4,3-d]pyrimidin-7-yl)naphthalen-2-yl)oxy)methyl dimethylcarbamate]
half-life at 2 μM [1]: > 289 min | half-life at 2 μM [2]: > 289 min

CCc1c(F)ccc2cc(OC(=O)N(CC)CC)cc(N3CCc4c(nc(OC[C@@]56CCCN5C[C@H](F)C6)nc4N4CCC[C@]5(C4)NC(=O)NC5=O)C3)c12 [Example 45, 4-(4-((R)-2,4-dioxo-1,3,7-triazaspiro[4.5]decan-7-yl)-2-(((2R,7aS)-2-fluorotetrahydro-1H-pyrrolizin-7a(5H)-yl)methoxy)-5,8-dihydropyrido[3,4-d]pyrimidin-7(6H)-yl)-5-ethyl-6-fluoronaphthalen-2-yl diethylcarbamate]
half-life at 2 μM [1]: > 289 min | half-life at 2 μM [2]: > 289 min

CCc1c(F)ccc2cc(OC(=O)C(C)(C)C)cc(-c3ncc4c(N5C[C@@H]6C[C@H](C5)[C@H](O)C6)nc(OC[C@@]56CCCN5C[C@H](F)C6)nc4c3F)c12 [Example 5, 5-ethyl-6-fluoro-4-(8-fluoro-2-(((2R,7aS)-2-fluorotetrahydro-1H-pyrrolizin-7a(5H)-yl)methoxy)-4-((1R,5R,6R)-6-hydroxy-3-azabicyclo[3.2.1]octan-3-yl)pyrido[4,3-d]pyrimidin-7-yl)naphthalen-2-yl pivalate]
half-life at 2 μM [1]: 2 min | half-life at 2 μM [2]: 67 min

CCC(=O)Oc1cc(N2CCc3c(nc(OC[C@@]45CCCN4C[C@H](F)C5)nc3N3CCC[C@]4(C3)NC(=O)NC4=O)C2)c2c(CC)c(F)ccc2c1 [Example 29, 4-(4-((R)-2,4-dioxo-1,3,7-triazaspiro[4.5]decan-7-yl)-2-(((2R,7aS)-2-fluorotetrahydro-1H-pyrrolizin-7a(5H)-yl)methoxy)-5,8-dihydropyrido[3,4-d]pyrimidin-7(6H)-yl)-5-ethyl-6-fluoronaphthalen-2-yl propionate]
half-life at 2 μM [1]: 2 min | half-life at 2 μM [2]: 33 min

CCc1c(F)ccc2cc(OC(=O)OC(C)(C)C)cc(-c3ncc4c(N5C[C@@H]6C[C@H](C5)[C@H](O)C6)nc(OC[C@@]56CCCN5C[C@H](F)C6)nc4c3F)c12 [Example 19, tert-butyl (5-ethyl-6-fluoro-4-(8-fluoro-2-(((2R,7aS)-2-fluorotetrahydro-1H-pyrrolizin-7a(5H)-yl)methoxy)-4-((1R,5R,6R)-6-hydroxy-3-azabicyclo[3.2.1]octan-3-yl)pyrido[4,3-d]pyrimidin-7-yl)naphthalen-2-yl) carbonate]
half-life at 2 μM [1]: 3 min | half-life at 2 μM [2]: > 289 min

CCc1c(F)ccc2cc(OC(=O)C34CC5CC(CC(C5)C3)C4)cc(N3CCc4c(nc(OC[C@@]56CCCN5C[C@H](F)C6)nc4N4CCC[C@]5(C4)NC(=O)NC5=O)C3)c12 [Example 63, 4-(4-((R)-2,4-dioxo-1,3,7-triazaspiro[4.5]decan-7-yl)-2-(((2R,7aS)-2-fluorotetrahydro-1H-pyrrolizin-7a(5H)-yl)methoxy)-5,8-dihydropyrido[3,4-d]pyrimidin-7(6H)-yl)-5-ethyl-6-fluoronaphthalen-2-yl (3r,5r,7r)-adamantane-1-carboxylate]
half-life at 2 μM [1]: 13 min | half-life at 2 μM [2]: > 289 min

CCc1c(F)ccc2cc(OC(=O)N3CCCCC3)cc(N3CCc4c(nc(OC[C@@]56CCCN5C/C(=C\F)C6)nc4N4CCC[C@]5(C4)NC(=O)NC5=O)C3)c12 [Example 73, 4-(4-(CAN-2,4-dioxo-1,3,7-triazaspiro[4.5]decan-7-yl)-2-(((S,Z)-2-(fluoromethylene)tetrahydro-1H-pyrrolizin-7a(5H)-yl)methoxy)-5,8-dihydropyrido[3,4-d]pyrimidin-7(6H)-yl)-5-ethyl-6-fluoronaphthalen-2-yl piperidine-1-carboxylate]
half-life at 2 μM [1]: 147 min

CCc1c(F)ccc2cc(OC(C)=O)cc(N3CCc4c(nc(OCC56CCCN5C/C(=C\F)C6)nc4N4CCC[C@]5(C4)NC(=O)NC5=O)C3)c12 (stereo partly drawn) [Example 72, 4-(4-(CAN-2,4-dioxo-1,3,7-triazaspiro[4.5]decan-7-yl)-2-(((S,Z)-2-(fluoromethylene)tetrahydro-1H-pyrrolizin-7a(5H)-yl)methoxy)-5,8-dihydropyrido[3,4-d]pyrimidin-7(6H)-yl)-5-ethyl-6-fluoronaphthalen-2-yl acetate]
half-life at 2 μM [1]: 2 min

CCc1c(F)ccc2cc(OC(=O)N(CCOC)CCOC)cc(N3CCc4c(nc(OC[C@@]56CCCN5C[C@H](F)C6)nc4N4CCC[C@]5(C4)NC(=O)NC5=O)C3)c12 [Example 65, 4-(4-((R)-2,4-dioxo-1,3,7-triazaspiro[4.5]decan-7-yl)-2-(((2R,7aS)-2-fluorotetrahydro-1H-pyrrolizin-7a(5H)-yl)methoxy)-5,8-dihydropyrido[3,4-d]pyrimidin-7(6H)-yl)-5-ethyl-6-fluoronaphthalen-2-yl bis(2-methoxyethyl)carbamate]
half-life at 2 μM [2]: > 289 min

CCc1c(F)ccc2cc(OC(=O)C(C)C)cc(N3CCc4c(nc(OCC56CCCN5C/C(=C\F)C6)nc4N4CCC[C@]5(C4)NC(=O)NC5=O)C3)c12 (stereo partly drawn) [Example 76, 4-(4-(CAN-2,4-dioxo-1,3,7-triazaspiro[4.5]decan-7-yl)-2-(((S,Z)-2-(fluoromethylene)tetrahydro-1H-pyrrolizin-7a(5H)-yl)methoxy)-5,8-dihydropyrido[3,4-d]pyrimidin-7(6H)-yl)-5-ethyl-6-fluoronaphthalen-2-yl isobutyrate]
half-life at 2 μM [1]: 4 min
